This passage reports IC50 results from patent publication US8546390B2, “6-(pyrrolopyridinyl) pyrimidin-2-ylamine derivatives and the use thereof for the treatment of cancer and AIDS” (Merck Patent GmbH, priority 2008, dated 2013).

Where two headings read alike, the source gives them in different places.

The target in one experiment is T1, PDK1 (Homo sapiens, UniProt O15530).
T1 construct: His6 (N)
T1 sequence (O15530 51-556): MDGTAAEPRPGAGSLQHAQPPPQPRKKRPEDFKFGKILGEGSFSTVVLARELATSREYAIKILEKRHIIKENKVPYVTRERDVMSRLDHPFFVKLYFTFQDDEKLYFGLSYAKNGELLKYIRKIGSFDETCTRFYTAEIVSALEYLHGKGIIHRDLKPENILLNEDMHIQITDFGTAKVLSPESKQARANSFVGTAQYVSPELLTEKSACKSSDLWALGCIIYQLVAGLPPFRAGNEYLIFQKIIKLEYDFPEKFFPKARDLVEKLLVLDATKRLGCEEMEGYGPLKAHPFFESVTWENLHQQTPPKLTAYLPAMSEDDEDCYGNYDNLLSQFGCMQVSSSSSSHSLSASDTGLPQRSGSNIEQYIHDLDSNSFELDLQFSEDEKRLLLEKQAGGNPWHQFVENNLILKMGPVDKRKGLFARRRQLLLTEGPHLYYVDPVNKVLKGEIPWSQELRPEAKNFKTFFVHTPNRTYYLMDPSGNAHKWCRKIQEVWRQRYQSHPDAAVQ
The experiment in a line: Test for the inhibition of PDK1 (flashplate, 33P-ATP). Format: biochemical. On the procedure: NO.: 1, (400 Nm), 4 μm ATP (with 0.2 μCi of ^33P-ATP/well) and the test substance in 50 μl of conventional experimental solution per well are incubated at 30° C. for 60 min. The test substances are employed in corresponding concentrations (if desired in a dilution series). The control is carried out without test substance. The reaction is stopped using standard methods and washed. The activity of the kinase is measured via the incorporated radioactivity in top count. In order to determine the non-specific kinase reaction (blank value), the experimental batches are carried out in the presence of 100 nM staurosporin.
The radioactivity (decompositions per minute) of the blank value (no use of test substance in the presence of staurosporin) is subtracted from all other radioactivity values. The controls (kinase activity without test substance) are set equal to 100 percent and all other radioactivity values (after subtracting the blank value) are expressed set in relation thereto (for example in % of the control).

A further experiment has as its system A2780 (ovary). The experiment in a line: Inhibition of the proliferation/vitality of tumour cells (Alamar Blue test). Format: cell-based. The conditions noted are these: Homo sapiens, 96 h, A2780 ovary cell line, 4 days cultivation with test substance. On the procedure:
In the present experiment description, the inhibition of tumour cell proliferation/tumour cell vitality by active ingredients is described. The cells are sown in a suitable cell density in microtitre plates (96-well format) and the test substances are added in the form of a concentration series. After four further days of cultivation in serum-containing medium, the tumour cell proliferation/tumour cell vitality can be determined by means of an Alamar Blue test system.
The cells are cultivated in medium. At intervals of several days, the cells are detached from the culture dishes with the aid of trypsin solution and sown in suitable dilution in fresh medium. The cells are cultivated at 37° Celsius and 10% CO2.
A defined number of cells (for example 2000 cells) per culture/well in a volume of 180 μl of culture medium are sown in microtitre plates (96 well cell-culture plates) using a multichannel pipette. The cells are subsequently cultivated in a CO2 incubator (37° C. and 10% CO2).
The test substances are dissolved, for example, in DMSO and subsequently employed in corresponding concentration (if desired in a dilution series) in the cell culture medium. The dilution steps can be adapted depending on the efficiency of the active ingredients and the desired spread of the concentrations. Cell culture medium is added to the test substances in corresponding concentrations. The addition of the test substances to the cells can take place on the same day as the sowing of the cells. To this end, in each case 20 μl of substance solution from the predilution plate are added to the cultures/wells. The cells are cultivated for a further 4 days at 37° Celsius and 10% CO2.
In each case, 20 μl of Alamar Blue reagent are added per well, and the microtitre plates are incubated, for example, for a further seven hours in a CO2 incubator (at 37° C. and 10% CO2). The plates are measured in a reader with a fluorescence filter at a wavelength of 540 nm. The plates can be shaken gently immediately before the measurement.
The absorbance value of the medium control (no cells and test substances used) is subtracted from all other absorbance values. The controls (cells without test substance) are set equal to 100 percent, and all other absorbance values are set in relation thereto (for example in % of control): Calculation:
IC50 values (50% inhibition) are determined with the aid of statistics programs, such as, for example, RS1.

The mark [1] stands for this setting: His6-PDK1(Δ1-50) 3.4 nM, 30° C., 60 min, read-out: IC50 PDK1.

As to `CCc1cc(-c2c[nH]c3ncc(-c4cn[nH]c4)cc23)nc(N)n1` [Compound A60, 4-Ethyl-6-[5-(1H-pyrazol-4-yl)-1H-pyrrolo[2,3-b]pyridin-3-yl]pyrimidin-2-ylamine], the IC50 against PDK1 lay in the range of 0.01 to 1 µM.
Take `CCc1cc(-c2c[nH]c3ncc(-c4ccco4)cc23)nc(N)n1` [Compound A49, 4-Ethyl-6-(5-furan-2-yl-1H-pyrrolo[2,3-b]pyridin-3-yl)pyrimidin-2-ylamine]: the IC50 on PDK1 (setting [1]) lay in the range of 0.01 to 1 µM.
Consider `CCc1cc(-c2c[nH]c3ncccc23)nc(N)n1` [Compound A5, 4-ethyl-6-(1H-pyrrolo[2,3-b]pyridin-3-yl)pyrimidin-2-ylamine], for which the half-inhibitory concentration (IC50) in the experiment on A2780 (ovary) was in the range of 0.01 to 1 µM.
As for `CCc1cc(-c2c[nH]c3ncc(-c4ccc(N)nc4)cc23)nc(N)n1` [Compound A48, 4-[5-(6-Aminopyridin-3-yl)-1H-pyrrolo-[2,3-b]pyridin-3-yl]-6-ethylpyrimidin-2-ylamine], on PDK1 (setting [1]), the concentration for half-maximal inhibition (IC50) fell in the range of 0.01 to 1 µM.
In the experiment on A2780 (ovary), `CCCC1CCC(c2cc(-c3c[nH]c4ncccc34)nc(N)n2)CC1` (stereo not shown) [Compound A8] yielded a half-maximal inhibitory concentration (IC50) of 1 to 10 µM.
In the experiment on A2780 (ovary), `CCCCCc1cc(-c2c[nH]c3ncccc23)nc(N)n1` [Compound A6, 4-Pentyl-6-(1H-pyrrolo[2,3-b]pyridin-3-yl)pyrimidin-2-ylamine] had an IC50 of 1 to 10 µM.
Consider `CCc1cc(-c2c[nH]c3ncc(Br)cc23)nc(N)n1` [Compound A32], for which the IC50 at PDK1 (setting [1]) lay in the range of 0.01 to 1 µM.
On to `CCc1cc(-c2c[nH]c3ncc(-c4cnn(CC(C)C)c4)cc23)nc(N)n1` [Compound A66, 4-Ethyl-6-[5-(1-isobulyl-1H-pyrazol-4-yl)-1H-pyrrolo[2,3-b]pyridin-3-yl]-pyrimidin-2-ylamine], for which the IC50 at PDK1 (setting [1]) is 0.01 to 1 µM.
Same read-out and setting: the result for `CCc1cc(-c2c[nH]c3ncc(-c4cnn(CCOC)c4)cc23)nc(N)n1` [Compound A56, 4-Ethyl-6-{5-[1-(2-methoxyethyl)-1H-pyrazol-4-yl]-1H-pyrrolo[2,3-b]pyridin-3-yl}pyrimidin-2-ylamine] reads 0.01 to 1 µM.
The compound `CCCc1cc(-c2c[nH]c3ncccc23)nc(N)n1` [Compound A3, 4-Propyl-6-(1H-pyrrolo[2,3-b]pyridin-3-yl)pyrimidin-2-ylamine] had an IC50 in the experiment with A2780 (ovary) of 0.01 to 1 µM.
In the case of “4-(3-aminopropyl)-6-[5-(1-methyl-1H-pyrazol-4-yl)-1H-pyrrolo[2,3-b]pyridin-3-yl]pyrimidin-2-ylamine [Compound A42]”, the IC50 at PDK1 (setting [1]) lay in the range of 0.01 to 1 µM.
Regarding `CCc1cc(-c2c[nH]c3ncc(-c4cnn(C)c4)cc23)nc(N)n1` [Compound A45, 4-ethyl-6-[5-(1-methyl-1H-pyrazol-4-yl)-1H-pyrrolo[2,3-b]pyridin-3-yl]pyrimidin-2-ylamine], at PDK1 (setting [1]), the 50% inhibitory concentration (IC50) was 0.01 to 1 µM.
As for `NCCCc1cc(-c2c[nH]c3ncccc23)nc(N)n1` [Compound A16, 4-(3-Aminopropyl)-6-(1H-pyrrolo[2,3-b]pyridin-3-yl)pyrimidin-2-ylamine], the concentration for half-maximal inhibition (IC50) at PDK1 (setting [1]) was 0.01 to 1 µM.
`Nc1nc(-c2ccccc2)cc(-c2c[nH]c3ncccc23)n1` [Compound A2, 4-Phenyl-6-(1H-pyrrolo[2,3-b]pyridin-3-yl)pyrimidin-2-ylamine] had a half-inhibitory concentration (IC50) in the experiment with A2780 (ovary) of 0.01 to 1 µM.
In the experiment with A2780 (ovary), `CCCCc1cc(-c2c[nH]c3ncccc23)nc(N)n1` [Compound A1, 4-butyl-6-(1H-pyrrolo[2,3-b]pyridin-3-yl)pyrimidin-2-ylamine] registered a 50% inhibitory concentration (IC50) of 0.01 to 1 µM.
On to `NCCCc1cc(-c2c[nH]c3ncc(-c4ccco4)cc23)nc(N)n1` [Compound A43, 4-(3-Aminopropyl)-6-(5-furan-2-yl-1H-pyrrolo[2,3-b]pyridin-3-yl)pyrimidin-2-ylamine], for which, on PDK1 (setting [1]), the IC50 was in the range of 0.01 to 1 µM.
